Values quoted from earlier work in patent publication US10478452B2, “Antiviral pharmaceutical composition for topical use” (QUIMICA LUAR SRL, priority 2015, dated 2019).

Conditions: according to some studies

Nc1nc(O)c2ncn(COC(CO)CO)c2n1 [ganciclovir]
concentrations of intracellular triphosphate ganciclovir relative to those of acyclovir: approximately ten-fold higher | mean life of intracellular triphosphate: more than 24 hours
